Experimental data as given in patent US20060069132A1, “Azolecarboxamide herbicides” (priority 2004, published 2006).

Tests used:
[1] = system: common (oilseed) sunflower; test: Test C pre-/postemergence herbicide test; format: in vivo, Helianthus annuus; conditions: 125 g ai/ha; scale 0 (no effect) to 100 (complete control); visual, 12 to 14 days; preemergence
Outline: (§1)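 Visual ratings on a 0–100 scale (100 = complete control) made versus untreated controls after 12 to 14 greenhouse days. Test chemicals, formulated in surfactant-containing non-phytotoxic solvent, applied preemergence to planted seeds or postemergence to 1- to 4-leaf plants (2 to 18 cm).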

[2] = system: goosegrass; test: Test C pre-/postemergence herbicide test; format: in vivo, Eleusine indica; conditions: preemergence
Outline: as §1

[3] = system: soybean; test: Test C pre-/postemergence herbicide test; format: in vivo, Glycine max; conditions: preemergence
Outline: as §1

[4] = system: cocklebur; test: Test C pre-/postemergence herbicide test; format: in vivo, Xanthium strumarium; conditions: preemergence
Outline: as §1

[5] = system: velvetleaf; test: Test A pre-/postemergence herbicide test; format: in vivo, Abutilon theophrasti
Outline: (§2)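 Visual injury scores on a 0–100 scale (100 = complete control) taken about ten days post-treatment in greenhouse against untreated controls; dash means no result. Treatments: preemergence soil spray and postemergence spray to runoff on one- to two-leaf plants 2 to 10 cm tall, surfactant-containing formulation.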

[6] = system: morningglory; test: Test A pre-/postemergence herbicide test; format: in vivo, Ipomoea spp.
Outline: as §2

[7] = system: velvetleaf; test: Test C pre-/postemergence herbicide test; format: in vivo, Abutilon theophrasti; conditions: 125 g ai/ha; scale 0 (no effect) to 100 (complete control); visual, 12 to 14 days; preemergence
Outline: as §1

[8] = system: barnyardgrass; test: Test C flooded paddy test; format: in vivo, Echinochloa crus-galli
Outline: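 Injury scored visually against controls on a 0 (no effect) to 100 (complete control) scale, 12 to 14 days after treatment in greenhouse. Flooded paddy plants treated at 2-leaf stage; postemergence plants at 1- to 4-leaf stage, 2 to 18 cm tall.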

[9] = system: yellow nutsedge; test: Test C pre-/postemergence herbicide test; format: in vivo, Cyperus esculentus; conditions: preemergence
Outline: as §1

[10] = system: lambsquarters; test: Test C pre-/postemergence herbicide test; format: in vivo, Chenopodium album; conditions: 125 g ai/ha; scale 0 (no effect) to 100 (complete control); visual, 12 to 14 days; preemergence
Outline: as §1

[11] = system: ducksalad; test: Test C flooded paddy test; format: in vivo, Heteranthera limosa
[12] = 125 g ai/ha, scale 0 (no effect) to 100 (complete control), visual, 12 to 14 days
[13] = Postemergence, 500 g ai/ha, 0 to 100 scale, 0 no effect, 100 complete control
[14] = Postemergence, 2000 g ai/ha, 0 to 100 scale, 0 no effect, 100 complete control
[15] = Preemergence, 2000 g ai/ha, visual rating, 0 to 100 scale (0 no effect, 100 complete control)
[16] = 62 g ai/ha, scale 0 to 100 (0 no effect, 100 complete control)
[17] = 250 g ai/ha, scale of 0 to 100, 0 is no effect, 100 is complete control
[18] = 500 g ai/ha, visual rating after 12 to 14 days, scale 0 to 100 (0 no effect, 100 complete control)

CC(=O)c1cccc(NC(=O)c2cc(C(C)(C)C)nn2CCF)c1 [Compound 128]
Plant response rating, Sunflower [1]: 50
Plant response rating (0 = no effect, 100 = complete control), Goosegrass ([2]; 62 g ai/ha): 80
Plant response rating, Goosegrass [2, 12]: 90
Plant response rating (0 = no effect, 100 = complete control), Soybean ([3]; 62 g ai/ha): 20
Plant response rating, Soybean [3, 12]: 20
Plant response rating (0 = no effect, 100 = complete control), Cocklebur ([4]; 62 g ai/ha): 10
Plant response rating, Cocklebur [4, 12]: 10
Velvetleaf plant response rating [5, 13]: 20
Plant response rating, Velvetleaf [5, 14]: 35
Velvetleaf plant response rating [5, 15]: 85
Velvetleaf plant response rating ([5]; preemergence, 500 g ai/ha, visual injury, 0 to 100 scale (0 no effect, 100 complete control)): 75
Morningglory plant response rating [6, 13]: 10
Plant response rating, Morningglory [6, 14]: 15
Morningglory plant response rating ([6]; Preemergence, 500 g ai/ha, visual rating, 0 to 100 scale (0 no effect, 100 complete control)): 45
Morningglory plant response rating [6, 15]: 85
Plant response rating, Velvetleaf [7]: 100
Barnyardgrass plant response rating [8, 16]: 30
Barnyardgrass plant response rating ([8]; 125 g ai/ha, scale of 0 to 100, 0 is no effect, 100 is complete control): 35
Barnyardgrass plant response rating [8, 17]: 60
Plant response rating, Barnyardgrass [8, 18]: 65
Plant response rating, Nutsedge, Yellow ([9]; 16 g ai/ha, scale 0 to 100, last section of Table C): 10
Plant response rating, Nutsedge, Yellow ([9]; 31 g ai/ha, scale 0 to 100, last section of Table C): 70
Plant response rating, Nutsedge, Yellow [9, 12]: 70
Plant response rating, Lambsquarters [10]: 30
Ducksalad plant response rating [11, 16]: 80
Ducksalad plant response rating ([11]; 125 g ai/ha, scale 0 to 100 (0 no effect, 100 complete control)): 95
Ducksalad plant response rating [11, 17]: 95
Plant response rating, Ducksalad [11, 18]: 95
